Experimental data as given in US6106805A, “Diagnostic composition containing an LH-RH antagonist for hysteroscopy” (Asta Medica Aktiengesellschaft, priority 1996, dated 2000).
Non-standard residues stand in square brackets, D forms with d. Residues, ends and D or L forms follow the SMILES beside them. dPhe(4-Cl) = N[C@H](Cc1ccc(Cl)cc1)C(=O)O; d2Nal = N[C@H](Cc1ccc2ccccc2c1)C(=O)O; dCit = NC(=O)NCCC[C@@H](N)C(=O)O; d3Pal = N[C@H](Cc1cccnc1)C(=O)O

Key:
[1] = comparison with existing therapies; cited from earlier work
endometrium = assay: Clinical experiment: endometrium measured by ultrasonics during cetrorelix pamoate treatment; assay type: in vivo, human
Procedure: (§1) Injection of 60 mg of cetrorelix on days 2 and 28 of the menstrual cycle.

E2 = assay: Clinical experiment: E2 level during cetrorelix pamoate treatment; assay type: in vivo, human
Procedure: as §1

myoma = assay: Hysteroscopic and laparoscopic myoma resection after cetrorelix therapy; assay type: in vivo, human; details: 2 months after beginning the cetrorelix therapy
Procedure: Treatment of a patient with uterine fibrosis, which was operated on. Injection of 60 mg of cetrorelix on days 2 and 28 of the menstrual cycle.

[2] = Tolerability of premedication, comparison with existing therapies; assay type: in vivo, human; details: short treatment period of from 7 to 10 days
[3] = Day 14 after 1st injection 60 mg
[4] = Day 21 after 1st injection 60 mg
[5] = Day 28, day of 2nd injection 60 mg

Row | SMILES | side effects / drawbacks of existing therapies [1] | endometrial growth during the treatment (endometrium; 60 mg on days 2 and 28 of the menstrual cycle, measured by ultrasonics) | Endometrium (endometrium; Day 7 after 1st injection 60 mg, patient with uterine fibrosis) [mm] | Endometrium (endometrium; [3]) | Endometrium (endometrium; [4]) [mm] | Endometrium (endometrium; [5]) | Endometrium (endometrium; Day 42, after 2 injections of 60 mg (Day 0, Day 28)) | Endometrium (endometrium; Day 55, end of the study, after 2 injections of 60 mg) | onset of decrease of the thickness of the endometrial layer (endometrium; after injecting) | E2 (E2; Day 0, day of 1st injection 60 mg (baseline)) [pg/mL] | E2 (E2; Day 7 after 1st injection 60 mg) [pg/mL] | E2 (E2; [3]) [pg/mL] | E2 (E2; [4]) [pg/mL] | E2 (E2; [5]) [pg/mL] | E2 (E2; Day 42, after 2 injections of 60 mg) [pg/mL] | E2 (E2; Day 55, end of the study) [pg/mL] | E2 (E2; Day of operation (07.05.96)) [pg/mL] | blood loss at hysteroscopic and laparoscopic myoma resection (myoma) | side effects [2]
1 | C#C[C@]1(O)CC[C@H]2[C@@H]3CCC4=Cc5oncc5C[C@]4(C)[C@H]3CC[C@@]21C [Danazol] | acne, hirsutism and increase in weight | – | – | – | – | – | – | – | – | – | – | – | – | – | – | – | – | – | –
2 | CC(=O)N[C@H](Cc1ccc2ccccc2c1)C(=O)N[C@H](Cc1ccc(Cl)cc1)C(=O)N[C@H](Cc1cccnc1)C(=O)N[C@@H](CO)C(=O)N[C@@H](Cc1ccc(O)cc1)C(=O)N[C@H](CCCNC(N)=O)C(=O)N[C@@H](CC(C)C)C(=O)N[C@@H](CCCNC(=N)N)C(=O)N1CCC[C@H]1C(=O)N[C@H](C)C(N)=O [cetrorelix pamoate] (Ac-[d2Nal][dPhe(4-Cl)][d3Pal]SY[dCit]LRP[dA]-NH2) | – | did not exhibit any growth | 2 | flat/even | 3.1 | flat/even | flat/even | flat/even | begins to decrease immediately | 25 | < 5 | 17 | 40 | 88 | 25 | 73 | 114 | without any significant blood loss | no side effects
